Data: US9394544B2, “Ameliorating oxidative stress in neurodegenerative disease via Nox1 targeting” (University of Central Florida Research Foundation, Inc., priority 2013, dated 2016)

What was measured:
rat SN = assay: Immunohistochemistry of SN sections, PQ rat model; type: in vivo
Procedure: The experiments were performed on rats, in accordance with the National Institutes for Health Guide for the Care and Use of Laboratory Animals. All procedures were approved by the local Animal Care and Use Committee. Male Wistar rats (8-10 weeks; Charles River) were maintained in a temperature/humidity-controlled environment under a 12 h light/dark cycle with ad libitum access to food and water. As depicted in FIG. 13A, each animal received four intraperitoneal injections, separated by 1 d, of either vehicle (saline) or PQ (10 mg/kg body weight; b.w.), according to a previously published dose (Manning-Bog et al., 2002; Harraz et al., 2008; Cristovao et al., 2009). All animals were weighed at day 1 and 12. In the studies using the paradigm depicted in FIG. 13A, 4 weeks before starting PQ intraperitoneal injection, animals were stereotaxically injected with various viral constructs at the right SN using the following coordinates: mediolateral, +2.0; anteroposterior, −5.3; dorsoventral, −6.8. Animals were organized into four groups: vector+vehicle: stereotaxically injected with adeno-associated virus (AAV) particles containing a green fluorescent protein (GFP) vector (vector) and then intraperitoneally injected with saline (vehicle) (n=10); vector+PQ: stereotaxically injected with vector and then intraperitoneally injected with PQ (n=10); shNox1+PQ: stereotaxically injected with AAV particles harboring Nox1 shRNA and then intraperitoneally injected with PQ (n=10); shNox1+vehicle: stereotaxically injected with Nox1 shRNA and then intraperitoneally injected with vehicle (n=8). AAV containing GFP vector was used as a negative control. Five days after the last PQ intraperitoneal injection, animals were killed. For Western blot analysis, brains were collected and total protein lysates from SN were prepared. For immunohistochemical analysis, animals were intracardially perfused before collecting the brains.
Following perfusion with saline and 4% PFA in PBS, brains were removed, and forebrain and midbrain blocks were immersion fixed in 4% PFA and cryoprotected in sucrose. Serial coronal sections (40 μm) were cut on a cryostat, collected in cryopreservative solution, and stored at −20° C. For immunolabeling studies, sections were incubated at room temperature with blocking solution for 1 h (5% FBS and 0.3% Triton X-100 in PBS, pH 7.5) and then with primary antibodies overnight. Finally, sections were incubated with secondary antibodies in blocking solution at room temperature for 1 h. The primary antibodies used were mouse anti-TH (1:10,000), rabbit anti-Nox1 (1:500), goat anti-4-HNE (1:700), mouse anti-ubiquitin (1:250), rabbit anti-α-synuclein (1:150), and rabbit anti-A11 oligomers (2.5 μg/ml). The secondary antibodies were biotinylated anti-rabbit IgG, anti-goat IgG, or anti-rat IgG (1:200). The staining procedure was performed as indicated by the manufacturer of the Vectastain ABC kit and the reaction product visualized using 3,3′-diaminobenzidine (DAB) reagent in TBS containing 0.02% H2O2. The numbers of TH-immunoreactive cells in the SN were counted using an optical fractionator. Analysis was performed using a system consisting of a Nikon Eclipse E600 microscope (Morrell Instruments) equipped with a computer-controlled LEP BioPoint motorized stage (Ludl Electronic Products), a DEI-750 video camera (Meyer Instruments), a Dell Dimension 4300 computer (Dell), and the Stereo Investigator (v. 4.35) software program (Microbrightfield).
Immunocytochemistry for proteinase K (PK)-resistant α-synuclein was performed based on a methodology reported previously (Neumann et al., 2002), with some modifications. Briefly, fixed cells were permeabilized with 0.1% Tween 20 and then digested for 30 min at 37° C. with PK (10 μg/ml). PK was inactivated with 3 M guanidine thiocyanate in 10 mM Tris-HCl solution for 10 min. Between each step, cells were washed gently three times with PBS. […]

Nox1 = Nox1 immunostaining in rat SN after striatal 6-OHDA; type: in vivo
Procedure: The experiments were carried out on rats, in accordance with the NIH Guide for the Care and Use of Laboratory Animals. All procedures were approved by the local Animal Care and Use Committee. Female Sprague Dawley (SD) rats (Charles River; 8-weeks-old at the time of the beginning of AAV expression or 6-OHDA treatment, 2 or 3 per cage) were maintained in a temperature/humidity-controlled environment under a 12 h light/dark cycle with free access to food and water. All rats were respectively allocated into […], Nox1 shRNA/AAV, T17N Rac1/AAV, and scramble (scb) shRNA/AAV or empty vector/AAV as control groups. […]
Free-floating sections (40 μm) were washed in 0.1 M PBS, incubated in 0.1 M PBS containing 5% normal donkey serum and 0.3% TritonX-100 for 1 h, and subsequently incubated overnight with primary antibodies (TH, 1:2,000; Nox1, 1:200; GFAP, 1:500; CD11b, 1:200) in 2% normal donkey serum in PBS at 4° C. and incubated in a 1:200 dilution of AlexaFluor conjugated donkey anti-rabbit (546) or donkey anti-mouse (488) antibodies for 1 h at room temperature, washed with PBS, incubated in TOTO-3 (1:1,000) in 0.1 M PBS for 5 min, and then mounted sequentially in glass slides using Vectashield. Mounted slices were evaluated for fluorescence under settings for 546, 488, and 660 nm emissions on a confocal microscope (Leica TCS SP5).

Compound	immunoreactivity of A11 oligomers in the SN (rat SN; PQ, PQ with Nox1 knocked down)	α-Synuclein immunoreactivity in the SN (rat SN; rats, PQ vs vehicle)	4-HNE immunoreactivity (lipid peroxidation) in the SN (rat SN; rats, PQ vs vehicle, Nox1 shRNA+PQ vs PQ)	Nox1 immunoreactivity in the SN (rat SN; rats, PQ vs vehicle, Nox1 shRNA+PQ vs vector+PQ)	PK-resistant α-synuclein immunoreactivity in the rat SN (rat SN; vector+PQ vs vector+vehicle, Nox1 shRNA+PQ)	ubiquitin immunoreactivity in the rat SN (rat SN; vector+PQ, Nox1 shRNA+PQ)	Nox1 expression in the substantia nigra vs vehicle (Nox1; 3 days after striatal injection)	TH-positive neurons showing Nox1 nuclear staining (Nox1; rat SN after 6-OHDA administration)
C[n+]1ccc(-c2cc[n+](C)cc2)cc1 [PQ, paraquat]	significant increase	increased	increase	upregulation	increase	significant increase		
NCCc1cc(O)c(O)cc1O [6-OHDA, 6-hydroxydopamine]							significant increase	About 75%
